Key:
VEGF-R2 = molecular target: T1, VEGF-R2 (Rattus norvegicus, UniProt O08775); experiment: VEGF-R2 Screening Assay; assay type: biochemical; details: rat VEGF-R2 kinase domain, 10 μM ATP
T1 construct: polyhistidine (N)
Protocol: (§1) A kinase reaction mixture was prepared containing 50 mM Tris-HCl at pH 8, 10 mM MgCl2, 0.1 mM Na3PO4, 1 mM DTT, 10 μM ATP, 0.025 μM biotinylated histone-H1 peptide substrate and 0.2 μCuries per well ^33P-γ-ATP (2000-3000 Ci/mmol). 70 μL of the kinase reaction mixture was dispensed into the well of a Streptavidin FlashPlate.
(§2) Test compound stock in 100% DMSO (1 μL) was added to the wells resulting in a final concentration of 1% DMSO in the reaction with a 100 μL final reaction volume. Each enzyme was diluted in 50 mM Tris-HCl pH=8.0, 0.1% BSA and 30 μL was added to each well to initiate the reaction. The reaction was incubated for one hour at 30° C. At the end of the 1 hr incubation, the reaction was terminated by aspirating the mixture from the plate and washing the wells twice with PBS containing 100 mM EDTA. The biotinylated peptide substrate became immobilized on the Flashplate™ and the incorporation of ^33P-γ-ATP was measured by reading the plate on a scintillation counter. Inhibition of the enzymatic activity was measured by observing a reduced amount of ^33P-γ-ATP incorporated into the immobilized peptide.
The VEGF-R2 enzyme is a fusion protein containing a polyhistidine tag at the N terminus followed by amino acids 786 to 1343 of the rat VEGF-R2 kinase domain (Accession number U93306). The assay used 150 ng of the N-terminal biotinylated peptide biotin-KHKKLAEGSAYEEV-amide (VEGF-R2) per well.
(§3) The IC50 was derived according to the procedure described in Example 1.

Aurora-A = molecular target: T2, Aurora-A (Mus musculus, UniProt P97477); experiment: Aurora-A Screening Assay; assay type: biochemical; details: murine Aurora-A full length, 10 μM ATP
T2 construct: followed by the full length protein encoding the murine Aurora-A; polyhistidine (N); made in house; host or cells: Sf9 insect cells
T2 sequence (P97477 1-395): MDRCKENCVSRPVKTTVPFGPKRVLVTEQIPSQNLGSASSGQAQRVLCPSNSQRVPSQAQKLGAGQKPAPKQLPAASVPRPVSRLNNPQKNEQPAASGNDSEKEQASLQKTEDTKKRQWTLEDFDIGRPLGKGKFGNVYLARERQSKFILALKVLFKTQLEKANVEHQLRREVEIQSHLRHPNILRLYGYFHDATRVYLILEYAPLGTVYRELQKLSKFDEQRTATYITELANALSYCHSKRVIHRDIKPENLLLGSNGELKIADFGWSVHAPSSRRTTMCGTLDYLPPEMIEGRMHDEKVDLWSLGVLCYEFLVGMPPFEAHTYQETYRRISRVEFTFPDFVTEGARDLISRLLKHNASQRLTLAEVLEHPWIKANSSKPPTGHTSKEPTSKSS
Protocol: as §1, §2
Aurora-A is a fusion protein containing a polyhistidine tag at the N terminus followed by the full length protein encoding the murine Aurora-A (Accession number GB BC014711) expressed and purified from sf9 insect cells. The assay used 400 ng of the N-terminal biotinylated peptide biotin-GRTGRRNSI-amide (Aurora-A) per well.
as §3

HER-2 = molecular target: T3, HER-2 (Homo sapiens, UniProt P04626); experiment: HER-2 Kinase Assay; assay type: biochemical; details: GST-HER2, 1 μM ATP
T3 construct: the nucleotides encoding amino acids 679 to 1255 of HER-2; HIS6-Thrombin (His6 tag and thrombin site) (N); purchased Proqinase (Freiburg, Germany)
Protocol: HER-2 kinase was purified at Proqinase (Freiburg, Germany) from a construct that consisted of a fusion of GST (Glutathione-S-Transferase), HIS6-Thrombin and the nucleotides encoding amino acids 679 to 1255 of HER-2.
A mixture of a 10× kinase reaction buffer (600 mM Hepes at pH 7.5, 30 mM Magnesium Chloride, 0.03 mM Sodium Vanadate and 500 μg/mL PEG 20,000), DTT (1.2 mM final from a 10 mM stock), ATP (1 μM from a 10 mM stock), biotinylated polyGluTyr (1.5 ng/μL final from stock of 1 μg/μL prepared by Upstate Biotechnologies, Lake Placid, N.Y.), Manganese Chloride (3 mM final from a 1 M stock), γ-^33P-ATP (10 μCi/μL stock) and water (70 μL/well) was added to each well of a Streptavidin Flashplate (Cat. # SMP103, NEN, Boston, Mass.).
Test compound stock (1 μL) was added to the appropriate wells. Diluted GSTHER2 kinase (6.7 ng/μL diluted into 50 mM Tris-HCl at pH 8.0 and 0.1% bovine serum albumin) (30 μL) was added (total volume of 200 ng/well) to initiate the reactions.
The reaction plates were incubated at 30° C. for 1 hr. The reaction was terminated by aspirating the reaction mixture from the plate wells and washing the wells three times with a 1×PBS stop buffer (300 μL) and 100 mM EDTA. After the final wash, the same stop buffer (200 μL) was again added to the wells. The plates were then sealed and read on the TopCount scintillation counter. The IC50 was derived according to the procedure described in Example 1.

[1] = test system: HeLa cervical adenocarcinoma; experiment: Cell Proliferation Inhibition Assay (14C-thymidine incorporation), HeLa; assay type: cell-based; details: Homo sapiens; HeLa cells
Protocol: (§4) The ability of a test compound to inhibit unregulated cell proliferation was determined by measuring incorporation of ^14C-labelled thymidine into newly synthesized DNA within cell lines derived from carcinomas originating from several tissues. Accordingly, the anti-proliferative effect of a compound on cells with a variety of phenotypes may be determined.
(§5) Carcinoma cell lines include those such as HeLa cervical adenocarcinoma (American Type Culture Collection (ATCC), Virginia, Cat. #CCL-2), A375 malignant melanoma (ATCC CRL-1619), SK-OV-3 ovarian adenocarcinoma (ATCC HTB-77), HCT-116 colon carcinoma (CCL-247), PC-3 prostate adenocarcinoma (ATCC CRL-1435), and MDA-MB-231 (Xenogen Corp.)
(§6) The carcinoma cells were trypsinized and counted. The cells (3000-8000 count) were added to each well of a 96-well CytoStar tissue culture treated scintillating microplate (Amersham #RPNQ0160) in complete medium (100 μL) and the plate was then incubated in complete medium for 24 hrs at 37° C. in an […] atmosphere containing 5% CO2. Test compound (1 μL) in 100% DMSO was added to the plate test-wells with DMSO only added to control-wells. The plate was incubated in complete medium for a second 24 hr period at 37° C. in an atmosphere containing 5% CO2.
(§7) An aliquot of a solution of methyl ^14C-thymidine (56 mC/mmol) (NEN #NEC568 or Amersham #CFA532) and complete medium (20 uL to provide 0.2 μCi/well) was then added to each well and the plate was incubated for a third 24 hr period at 37° C. in an atmosphere containing 5% CO2. The plate contents were then discarded, the plate was washed twice with PBS (200 μL) and then PBS (200 μL) was added to each well. The plate was sealed and the degree of methyl ^14C-thymidine incorporation was quantified on a Packard Top Count.

A375 malignant melanoma = experiment: Cell Proliferation Inhibition Assay (14C-thymidine incorporation), A375; assay type: cell-based; details: Homo sapiens, A-375; A375 cells
Protocol: as §4, §5, §6, §7

HCT-116 colon carcinoma = experiment: Cell Proliferation Inhibition Assay (14C-thymidine incorporation), HCT116; assay type: cell-based; details: Homo sapiens, HCT116 cells
Protocol: as §4, §5, §6, §7

T3 sequence (P04626 679-1255): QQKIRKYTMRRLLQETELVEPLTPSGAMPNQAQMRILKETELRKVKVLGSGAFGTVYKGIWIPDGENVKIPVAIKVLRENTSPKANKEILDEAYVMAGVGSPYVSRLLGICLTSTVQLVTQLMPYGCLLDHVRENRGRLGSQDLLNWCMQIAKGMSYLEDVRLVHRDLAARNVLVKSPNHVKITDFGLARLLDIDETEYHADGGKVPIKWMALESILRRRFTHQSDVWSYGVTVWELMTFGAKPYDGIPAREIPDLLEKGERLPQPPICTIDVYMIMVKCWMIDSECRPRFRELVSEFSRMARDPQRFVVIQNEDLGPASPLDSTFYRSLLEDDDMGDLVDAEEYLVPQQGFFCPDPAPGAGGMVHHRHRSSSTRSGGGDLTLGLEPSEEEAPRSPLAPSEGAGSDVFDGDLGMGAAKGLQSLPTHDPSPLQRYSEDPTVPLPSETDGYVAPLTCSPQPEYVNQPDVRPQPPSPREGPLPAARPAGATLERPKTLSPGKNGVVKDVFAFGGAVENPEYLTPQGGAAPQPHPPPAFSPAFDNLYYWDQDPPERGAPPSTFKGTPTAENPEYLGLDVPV
T1 sequence (O08775 786-1343): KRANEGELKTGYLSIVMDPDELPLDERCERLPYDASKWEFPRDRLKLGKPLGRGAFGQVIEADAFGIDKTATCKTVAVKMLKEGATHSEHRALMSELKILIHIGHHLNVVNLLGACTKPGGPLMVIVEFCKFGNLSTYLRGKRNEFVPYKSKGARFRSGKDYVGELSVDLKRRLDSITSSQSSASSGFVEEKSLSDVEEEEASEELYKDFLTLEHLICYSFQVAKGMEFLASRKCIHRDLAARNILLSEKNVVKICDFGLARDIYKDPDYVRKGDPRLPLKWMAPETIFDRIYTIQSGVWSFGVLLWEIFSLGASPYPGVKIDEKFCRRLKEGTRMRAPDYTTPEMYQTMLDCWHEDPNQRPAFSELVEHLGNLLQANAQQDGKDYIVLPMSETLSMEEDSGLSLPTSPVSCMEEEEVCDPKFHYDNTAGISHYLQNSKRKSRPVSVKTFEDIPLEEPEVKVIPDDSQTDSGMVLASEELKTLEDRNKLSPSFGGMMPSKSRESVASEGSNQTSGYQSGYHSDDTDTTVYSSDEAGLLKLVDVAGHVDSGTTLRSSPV

| SMILES | IC50 (VEGF-R2) | IC50 (Aurora-A) | IC50 (HER-2) | IC50 [1] | IC50 (A375 malignant melanoma) | IC50 (HCT-116 colon carcinoma) |
| --- | --- | --- | --- | --- | --- | --- |
| Cc1c(C(=O)NCCN2CCOCC2)sc2ncnc(Nc3ccc(NC(=O)c4ccccc4)cc3)c12 [Cpd 25, 4-(4-benzoylamino-phenylamino)-5-methyl-thieno[2,3-d]pyrimidine-6-carboxylic acid (2-morpholin-4-yl-ethyl)-amide] | > 100 µM | > 10 µM | > 100 µM | > 10 µM | > 10 µM | > 10 µM |
| Cc1c(C(=O)NCCCN2CCOCC2)sc2ncnc(Nc3ccc(NC(=O)c4ccccc4)cc3)c12 [Cpd 26, 4-(4-benzoylamino-phenylamino)-5-methyl-thieno[2,3-d]pyrimidine-6-carboxylic acid (3-morpholin-4-yl-propyl)-amide] | > 100 µM | > 1 µM | > 10 µM | > 10 µM | > 10 µM | > 10 µM |

Reference: patent US20080108611A1, “SUBSTITUTED THIENOPYRIMIDINE KINASE INHIBITORS” (priority 2006, published 2008)
